Experimental data: patent publication US7718638B2, “(20R)-23,23-difluoro-2-methylene-19-nor-bishomopregnacalciferol-vitamin D analogs” (Wisconsin Alumni Research Foundation, priority 2007, dated 2010)
“Also recorded” adds a separate entry of the source.

Tests used:
Sprague-Dawley rats [1] = assay: Bone calcium mobilization (serum calcium) in vitamin D-deficient rats; type: in vivo, rat; settings: FIG. 4; for bone calcium mobilization (serum calcium levels): dose not given, vitamin D-deficient rats on 0.02% Ca diet; for bone calcium mobilization: rats on 0.02% Ca diet
Experimental: (§1) Intestinal Calcium Transport and Bone Calcium Mobilization
(§2) Male, weanling Sprague-Dawley rats were placed on Diet 11 (0.47% Ca) diet+AEK oil for one week followed by Diet 11 (0.02% Ca)+AEK oil for 3 weeks. The rats were then switched to a diet containing 0.47% Ca for one week followed by two weeks on a diet containing 0.02% Ca. Dose administration began during the last week on 0.02% calcium diet. Four consecutive ip doses were given approximately 24 hours apart. Twenty-four hours after the last dose, blood was collected from the severed neck and the concentration of serum calcium determined as a measure of bone calcium mobilization. The first 10 cm of the intestine was also collected for intestinal calcium transport analysis using the everted gut sac method.

HL-60 cells = assay: HL-60 cell differentiation (nitro blue tetrazolium reduction); type: cell-based, human; settings: FIG. 2; for EC50: HL-60 cells, 4 days
Experimental: The study drugs were dissolved in ethanol and the concentrations determined using UV spectrophotometry. Serial dilutions were prepared so that a range of drug concentrations could be tested without changing the final concentration of ethanol (≦0.2%) present in the cell cultures.
Human promyelocytic leukemia (HL60) cells were grown in RPMI-1640 medium containing 10% fetal bovine serum. The cells were incubated at 37° C. in the presence of 5% CO2.
HL60 cells were plated at 1.2×10^5 cells/ml. Eighteen hours after plating, cells in duplicate were treated with drug. Four days later, the cells were harvested and a nitro blue tetrazolium reduction assay was performed (Collins et al., 1979; J. Exp. Med. 149:969-974). The percentage of differentiated cells was determined by counting a total of 200 cells and recording the number that contained intracellular black-blue formazan deposits. Verification of differentiation to monocytic cells was determined by measuring phagocytic activity (data not shown).

Sprague-Dawley rats [2] = assay: Intestinal calcium transport (everted gut sac) in vitamin D-deficient rats; type: in vivo, rat; settings: FIG. 5; for intestinal calcium transport: everted gut sac
Experimental: as §1, §2

[3] = test system: 24-hydroxylase (24Ohase) gene promoter in ROS 17/2.8 (bone) cells; assay: In vitro transcription assay (24-hydroxylase promoter luciferase reporter); type: cell-based; settings: FIG. 3
Experimental: In Vitro Transcription Assay
Transcription activity was measured in ROS 17/2.8 (bone) cells that were stably transfected with a 24-hydroxylase (24Ohase) gene promoter upstream of a luciferase reporter gene (Arbour et al., 1998). Cells were given a range of doses. Sixteen hours after dosing the cells were harvested and luciferase activities were measured using a luminometer.
RLU=relative luciferase units.

[4] = biological target: T1, full-length recombinant rat vitamin D receptor (Rattus norvegicus, UniProt P13053); assay: Vitamin D receptor competitive binding with [3H]-1,25(OH)2D3; settings: FIG. 1
T1 construct: Full-length recombinant rat receptor was expressed in E. coli; histidine tag (C); made in house; host or cells: E. coli BL21 (DE3) Codon Plus RIL
T1 sequence (P13053 1-423): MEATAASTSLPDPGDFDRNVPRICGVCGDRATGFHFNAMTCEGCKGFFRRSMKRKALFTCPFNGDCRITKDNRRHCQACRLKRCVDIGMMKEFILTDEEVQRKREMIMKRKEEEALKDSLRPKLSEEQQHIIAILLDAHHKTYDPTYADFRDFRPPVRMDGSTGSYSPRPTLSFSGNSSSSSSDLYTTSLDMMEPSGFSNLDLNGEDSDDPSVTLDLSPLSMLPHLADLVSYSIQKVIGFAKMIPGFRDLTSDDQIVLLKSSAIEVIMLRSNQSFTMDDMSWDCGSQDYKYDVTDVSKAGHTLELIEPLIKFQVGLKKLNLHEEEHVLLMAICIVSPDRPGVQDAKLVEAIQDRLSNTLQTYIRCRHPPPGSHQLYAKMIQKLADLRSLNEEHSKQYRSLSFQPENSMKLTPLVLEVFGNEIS
From the text: Vitamin D Receptor Binding
Full-length recombinant rat receptor was expressed in E. coli BL21 (DE3) Codon Plus RIL cells and purified to homogeneity using two different column chromatography systems. The first system was a nickel affinity resin that utilizes the C-terminal histidine tag on this protein. The protein that was eluted from this resin was further purified using ion exchange chromatography (S-Sepharose Fast Flow). Aliquots of the purified protein were quick frozen in liquid nitrogen and stored at −80° C. until use. For use in binding assays, the protein was diluted in TEDK50 (50 mM Tris, 1.5 mM EDTA, pH 7.4, 5 mM DTT, 150 mM KCl) with 0.1% Chaps detergent. The receptor protein and ligand concentration were optimized such that no more than 20% of the added radiolabeled ligand was bound to the receptor.
Radiolabeled and unlabeled ligands were added to 100 mcl of the diluted protein at a final ethanol concentration of ≦10%, mixed and incubated overnight on ice to reach binding equilibrium. The following day, 100 mcl of hydroxylapatite slurry (50%) was added to each tube and mixed at 10-minute intervals for 30 minutes. […] After the final wash, the pellets were transferred to scintillation vials containing 4 ml of Biosafe II scintillation cocktail, mixed and placed in a scintillation counter. Total binding was determined from the tubes containing only radiolabeled ligand.

| Compound | bone calcium mobilization (serum calcium levels) (Sprague-Dawley rats [1]) | EC50 (HL-60 cells) | intestinal calcium transport (Sprague-Dawley rats [2]; 87 pmol/day) | EC50 ([3]; ROS 17/2.8 cells, 24Ohase-luciferase, 16 h, read-out: EC50, transcriptional activity in bone cells) | transcriptional activity in bone cells as compared to 1α,25-dihydroxyvitamin D3 ([3]; in words) | bone calcium mobilization (Sprague-Dawley rats [1]; 2340 pmol/day ip for 4 consecutive days) | bone calcium mobilization (Sprague-Dawley rats [1]; 35100 pmol/day ip for 4 consecutive days) | EC50 (HL-60 cells; Homo sapiens, 96 h) | potency on HL-60 cell differentiation as compared to 1,25(OH)2D3 (HL-60 cells; in words) | intestinal calcium transport (Sprague-Dawley rats [2]; 2340 pmol/day) | intestinal calcium transport (Sprague-Dawley rats [2]; 35100 pmol/day) | intestinal calcium transport activity as compared to 1,25(OH)2D3 (Sprague-Dawley rats [2]; in words, dose not stated) | Ki ([4]; full-length recombinant rat VDR, read-out: Ki, competition with [3H]-1,25(OH)2D3 for binding to the vitamin D receptor) | binding to the vitamin D receptor as compared to 1,25-(OH)2D3 ([4]; in words) |
| --- | --- | --- | --- | --- | --- | --- | --- | --- | --- | --- | --- | --- | --- | --- |
| C=C1/C(=C\C=C2/CCC[C@]3(C)[C@@H]([C@H](C)CCCC(C)(C)O)CC[C@@H]23)C[C@@H](O)C[C@@H]1O [1,25(OH)2D3, 1α,25-dihydroxyvitamin D3, reference compound] | increased serum calcium levels | 2 nM | promotes a significant increase | – | – | – | – | – | – | – | – | – | – | – |
| C=C1[C@H](O)CC(=C/C=C2\CCC[C@]3(C)[C@@H]([C@@H](C)CC(F)F)CC[C@@H]23)C[C@H]1O [FF-44, (20R)-23,23-difluoro-1α-hydroxy-2-methylene-19-nor-bishomopregnacalciferol] | very little bone calcium mobilization activity; also recorded: little, if any, activity in mobilizing calcium from bone | – | – | 10 nM | about the same transcriptional activity | did not result in mobilization of bone calcium | without any effect | 100 nM | almost as potent as 1,25(OH)2D3 | does not promote intestinal calcium transport | no significant intestinal calcium transport activity | very little activity | 0.2 nM | bound almost equally |
